Like-named read-outs stand apart in the source and are kept apart here.
Legend:
clinical = settings: human, in vivo; for AUC: AUC0-tau
Procedure: (§3) A randomized, double-blind, placebo-controlled, multiple-dose design study of Glu^22,25, Leu^23,28,31, Aib^29, Lys^263]hPTHrP(1-34)NH2 (SEQ ID NO.: 2) was conducted at 2 sites. A total of 39 eligible subjects were sequentially enrolled into 1 of 4 study groups consisting of 10 subjects each, with the exception of Group 2, which had 9 subjects. Within each study group, 8 subjects were randomly assigned to receive SEQ ID NO.: 2 and 2 subjects were randomly assigned to receive placebo (In Group 2 only, 1 subject received placebo). All subjects in the study were judged by the investigator to be healthy, normal volunteers. The test products were Glu^22,25, Leu^23,28,31, Aib^29, Lys^26,30]hPTHrP(1-34)NH2 (SEQ ID NO.: 2) (0.1 mg/vial) and Placebo (0.9% sodium chloride injection, USP). All subjects received a single subcutaneous (SC) dose of Glu^22,25, Leu^23,28,31, Aib^29, Lys^26,30]hPTHrP(1-34)NH2 (SEQ ID NO.: 2) or placebo for 7 days.
(§4) Criteria for Evaluation: Pharmacokinetics: PK sampling for plasma SEQ ID NO.: 2 on Days 1 and 7 was performed at the following time points: Predose (0 hour), 0.25, 0.5, 1, 1.5, 2, 3, 4, 6, 8, 12, and 24 hours postdose. Additionally, predose samples were taken for trough drug analysis on Days 3 to 6. The following PK parameters were computed for Days 1 and 7: AUC(0-t), AUC(0-∞) (Day 1 only), AUC(0-τ), AUCR (Day 1 only), Cmax, Tmax, Tlast, CL/F, Kel, t1/2, and AI (Day 7 only). These parameters were calculated from the overall (24 hours) plasma concentration-versus-time profiles by noncompartmental methods using WinNonlin® Pro Version 5.01 and SAS® Version 8.2. Moreover, the ln-transformed PK parameters Cmax, AUC(0-t), AUC(0-τ), and AUC(0-∞) are presented.
(§5) Plasma concentration and PK parameters for SEQ ID NO.: 2 were listed by subject and summarized by treatment and day using descriptive statistics (mean, standard deviation [SD], coefficient of variation [CV %], standard error of the mean [SEM], sample size [N], minimum [min], maximum [max], and median). Additionally, geometric means and ln-transformed values were provided for Cmax and AUCs. Dose proportionality was evaluated for Days 1 and 7 SEQ ID NO.: 2 data using the following power model: Ln(Y)=β0+β Ln Dose+ε where Y represents the PK parameters AUC(0-28), AUC(0-τ), AUC(0-t), and Cmax. Dose proportionality requires that β=1 for dose-dependent parameters.
(§6) The model was used to calculate the 95% confidence intervals (CI) for the slope of the ln-transformed PK parameters AUCs and Cmax. Dose proportionally was concluded if the 95% CI for the PK parameters included the value of 1.
(§7) For those cases in which dose proportionality could not be concluded within all doses investigated, dose proportionality analysis was performed for the first 3 (by excluding the highest dose) and the last 3 doses (by excluding the lowest dose).

[1] = tested on: urine PD markers (calcium, phosphorus, c-AMP, creatinine); assay: Clinical study: pharmacodynamic markers in urine; format: in vivo, human
Procedure: Urine PD Samples (Calcium Phosphorus Cyclic AMP [c-AMP], and Creatinine) were Obtained at the Following Time Points:
Day −1/Day 1: −24 to −18 hours, −18 to −12 hours, and −12 hours to 0 hours.
Days 1 and 7: 0 to 6 hours, 6 to 12 hours, and 12 to 24 hours.
The following parameters in urine were presented for each of the PD markers using SAS® Version 8.2: Volume (Vol.), concentration (Conc.), amount (Ae), cumulative amount (Cum. Ae), and excretion rates.
(§1) The data for each PD marker in serum (total and ionized calcium, phosphorus, PTH(1-84), 1,25-dihydroxyvitamin D, P1NP, and CTX) and in urine (calcium, phosphorus, c-AMP, and creatinine) following SEQ ID NO.: 2 and placebo doses were listed for each subject and summarized by SEQ ID NO.: 2 dose using descriptive statistics (mean, SD, CV %, SEM, N, min, max, and median).

[2] = Chemical stability of different formulations (SEQ ID NO.: 2 content); format: physicochemical; settings: Table 6 formulations
Procedure: (§2) Solutions were prepared at room temperature, by dissolution of the various ingredients in water for injection, with stirring over <30 minutes to ensure complete dissolution, Solutions were filtered through 0.2 micron filter and filled into glass vials, to which a rubber stopper was applied and crimped in place to ensure complete closure.
Table 6 details the chemical stability of the formulations described in Example 4.

[3] = tested on: serum PD markers (total and ionized calcium, phosphorus, PTH(1-84), 1,25-dihydroxyvitamin D, P1NP, CTX); format: in vivo, human
Excerpt: Predose Days: Days −30 and −2
PTH(1-84) and 1,25-dihydroxyvitamin D (vitamin D):
Procollagen Type 1 N-Propeptide (P1NP) and C-Telopeptide
Predose (Day −2), Days 3, 8, and 14.
as §1

[4] = human, in vivo
Procedure: as §3, §4, §5, §6, §7

[5] = tested on: Bacteria and Yeasts/moulds; assay: Preservative effectiveness test (European Pharmacopoeia 5.1.3), overall result; format: cell-based; settings: for preservative efficacy: after 3 and 4.5 months storage; for Preservative effectiveness test Results: after manufacturing
Procedure: as §2
The solutions were then stored for up to 3 months at 25° C., and up to 4.5 months at 5° C. and the preservative effectiveness test repeated. as described in Example 5.

Staphylococcus aureus = assay: Preservative effectiveness test, plate-count method; format: cell-based; settings: after 3 and 4.5 months storage

**Q.** Which results are given for `CC[C@H](C)[C@H](NC(=O)[C@H](CO)NC(=O)[C@H](CCCCN)NC(=O)CNC(=O)[C@H](CCCCN)NC(=O)[C@H](CC(=O)O)NC(=O)[C@H](Cc1cnc[nH]1)NC(=O)[C@H](CC(C)C)NC(=O)[C@H](CC(C)C)NC(=O)[C@H](CCC(N)=O)NC(=O)[C@H](Cc1cnc[nH]1)NC(=O)[C@H](CCC(=O)O)NC(=O)[C@H](CO)NC(=O)[C@@H](NC(=O)[C@H](C)N)C(C)C)C(=O)N[C@@H](CCC(N)=O)C(=O)N[C@@H](CC(=O)O)C(=O)N[C@@H](CC(C)C)C(=O)N[C@@H](CCCNC(=N)N)C(=O)N[C@@H](CCCNC(=N)N)C(=O)N[C@@H](CCCNC(=N)N)C(=O)N[C@@H](CCC(=O)O)C(=O)N[C@@H](CC(C)C)C(=O)N[C@@H](CC(C)C)C(=O)N[C@@H](CCC(=O)O)C(=O)N[C@@H](CCCCN)C(=O)N[C@@H](CC(C)C)C(=O)N[C@@H](CC(C)C)C(=O)NC(C)(C)C(=O)N[C@@H](CCCCN)C(=O)N[C@@H](CC(C)C)C(=O)N[C@@H](Cc1cnc[nH]1)C(=O)N[C@H](C(=O)N[C@@H](C)C(N)=O)[C@@H](C)O` [SEQ ID NO.: 2, [Glu^22,25, Leu^23,28,31, Aib^29, Lys^26,30]hPTHrP(1-34)NH2]?
**A.** half-life (clinical; mean t1/2): 1.05 to 2.59 h; AUC(0-inf) (clinical; sc, 5 ug): 0.187 ± 0.0545 ng·h/mL; AUC0-t (clinical; sc, 5 ug): 0.0784 ± 0.0455 ng·h/mL; AUC (clinical; sc, 5 ug): 0.187 ± 0.0544 ng·h/mL; CL/F (clinical; sc, 5 ug): 476 mL/min; Cmax (clinical; sc, 5 ug): 0.0431 ± 0.0107 ng/mL; Tmax (clinical; sc, 5 ug): 0.566 h; half-life (clinical; sc, 5 ug, t1/2): 2.59 ± 0.69 h; AUC(0-inf) (clinical; sc, 20 ug): 0.257 ± 0.119 ng·h/mL; AUC0-t (clinical; sc, 20 ug): 0.161 ± 0.111 ng·h/mL; AUC (clinical; sc, 20 ug): 0.257 ± 0.119 ng·h/mL; CL/F (clinical; sc, 20 ug): 1570 mL/min; Cmax (clinical; sc, 20 ug): 0.115 ± 0.0539 ng/mL; Tmax (clinical; sc, 20 ug): 0.296 h; half-life (clinical; sc, 20 ug, t1/2): 1.05 ± 0.314 h; AUC(0-inf) (clinical; sc, 40 ug): 0.593 ± 0.281 ng·h/mL; AUC0-t (clinical; sc, 40 ug): 0.42 ± 0.275 ng·h/mL; AUC (clinical; sc, 40 ug): 0.593 ± 0.281 ng·h/mL; CL/F (clinical; sc, 40 ug): 1400 mL/min; Cmax (clinical; sc, 40 ug): 0.223 ± 0.099 ng/mL; Tmax (clinical; sc, 40 ug): 0.494 h; half-life (clinical; sc, 40 ug, t1/2): 1.65 ± 0.254 h; AUC(0-inf) (clinical; sc, 80 ug): 1.06 ± 0.514 ng·h/mL; AUC0-t (clinical; sc, 80 ug): 0.95 ± 0.494 ng·h/mL; AUC (clinical; sc, 80 ug): 1.05 ± 0.511 ng·h/mL; CL/F (clinical; sc, 80 ug): 1580 mL/min; Cmax (clinical; sc, 80 ug): 0.31 ± 0.0543 ng/mL; Tmax (clinical; sc, 80 ug): 0.752 h; half-life (clinical; sc, 80 ug, t1/2): 2.3 ± 0.715 h; mean urinary excretion rates of calcium ([1]; Day 1): approximately at predose levels; Mean urinary excretion rates of c-AMP ([1]; Days 1 and 7): increased; Mean urinary excretion rates of creatinine ([1]; Days 1 and 7): fluctuated around the predose levels; Mean urinary excretion rates of phosphorus ([1]; Days 1 and 7): fluctuated around the predose levels; solution stability, influence of the preservative [2]: not significantly influenced by the preservative selected; P1NP concentrations in serum, maximum increase above baseline ([3]; 80 μg dose, Days 3, 8, and 14): up to 18±12 ng/mL; 1,25-dihydroxyvitamin D concentrations in serum ([3]; 40 and 80 μg doses, after 2 hours postdose on Day 1 and most of the time on Day 7): steadily rose above the predose levels; serum phosphorus concentrations versus placebo ([3]; Days 1 and 7): below the placebo concentration levels; Serum PTH (1-84) concentrations ([3]; Days 1 and 7, during most of the sampling times): remained below the predose levels and placebo dose; Total calcium concentrations in serum versus reference range ([3]; human, in vivo): remained within the reference range; Apparent clearance ([4]; 80 ug): 82.74 to 103.9 L/h; Dose proportionality Slope, AUC (0-inf) ([4]; 80 ug): 0.9957; Dose proportionality Slope, AUC (0-t) ([4]; 80 ug): 0.9071; Dose proportionality Slope, AUC (0-tau) ([4]; 80 ug): 1.141; increases in PK parameters Cmax, AUC(0-f), AUC(0-τ), AUC(0-∞) with dose ([4]; 80 ug): dose-proportional; AUC0-t ([4]; sc, 5 ug): 0.080704 ± 0.030441 ng·h/mL; AUCR ([4]; sc, 5 ug): 0.521 ± 0.111; CL/F ([4]; sc, 5 ug): 28.56 L/h; Cmax ([4]; sc, 5 ug): 0.0408 ± 0.00763 ng/mL; Tmax ([4]; sc, 5 ug): 1.05 (0.514, 1.53) hr; ln (AUC0-inf) ([4]; sc, 5 ug): 5.200 ± 0.3016; ln (AUC0-tau) ([4]; sc, 5 ug): 5.198 ± 0.3007; AUC0-t ([4]; sc, 20 ug): 0.17158 ± 0.082031 ng·h/mL; AUC0-tau ([4]; sc, 20 ug): 0.2282 ± 0.095154 ng·h/mL; AUCR ([4]; sc, 20 ug): 0.828 ± 0.0449; CL/F ([4]; sc, 20 ug): 103.9 ± 53.01 L/h; Cmax ([4]; sc, 20 ug): 0.109 ± 0.0192 ng/mL; Tmax ([4]; sc, 20 ug): 0.512 (0.250, 3.05) hr; ln (AUC0-inf) ([4]; sc, 20 ug): 5.456 ± 0.4957; t1/2 ([4]; sc, 20 ug): 1.05 ± 0.244 h; AUC0-t ([4]; sc, 40 ug): 0.40798 ± 0.2197 ng·h/mL; AUC0-tau ([4]; sc, 40 ug): 0.48188 ± 0.22619 ng·h/mL; AUCR ([4]; sc, 40 ug): 0.838 ± 0.0703; CL/F ([4]; sc, 40 ug): 102.0 ± 53.34 L/h; Cmax ([4]; sc, 40 ug): 0.207 ± 0.0777 ng/mL; Tmax ([4]; sc, 40 ug): 0.492 (0.349, 1.00) hr; ln (AUC0-inf) ([4]; sc, 40 ug): 6.280 ± 0.5203; t1/2 ([4]; sc, 40 ug): 1.43 ± 0.397 h; AUC0-t ([4]; sc, 80 ug): 1.003 ± 0.38345 ng·h/mL; AUC0-tau ([4]; sc, 80 ug): 1.0803 ± 0.40857 ng·h/mL; AUCR ([4]; sc, 80 ug): 0.892 ± 0.0369; CL/F ([4]; sc, 80 ug): 82.74 ± 26.95 L/h; Cmax ([4]; sc, 80 ug): 0.436 ± 0.0688 ng/mL; Tmax ([4]; sc, 80 ug): 0.507 (0.500, 1.00) hr; ln (AUC0-inf) ([4]; sc, 80 ug): 6.855 ± 0.5063; t1/2 ([4]; sc, 80 ug): 1.69 ± 0.425 h

**Q.** What does the source list for `Oc1ccccc1` [Phenol]?
**A.** preservative efficacy [5]: maintained; Preservative effectiveness test Results [5]: compliant

**Q.** What does the source list for `OCc1ccccc1` [Benzyl Alcohol]?
**A.** rate of kill against S Aureus (Staphylococcus aureus): insufficient rate of kill; preservative efficacy [5]: not compliant; Preservative effectiveness test Results [5]: compliant
